Reference: PubChem BioAssay AID248 (DTP/NCI, 2004)
“And” between values parts separate entries of the source, which are not always exact repeats. Equal entries are not always repeated. Toxic doses and inconclusive results are not listed. Cut-off read from the data, not from the text of the source: active = T/C of 150% or more; inactive = T/C below 125%.

Tested on: L1210 leukemia ip in BDF1 mice, survival T/C
Assay: NCI In Vivo Anticancer Drug Screen. Data for tumor model L1210 Leukemia (intraperitoneal) in B6D2F1 (BDF1) mice
Settings: endpoint: mean survival time, higher = longer survival
Procedure, shortened: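 Value reflects the ratio of survival in compound-treated mice to survival in vehicle-treated controls, with both groups carrying the same transplanted tumor.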

[1] = dose: 50.0 mg/kg/injection, schedule: Q01DX009 (ip), vehicle: Klucel (hydroxypropylcellulose) (HPC)
[2] = dose: 100.0 mg/kg/injection, schedule: Q01DX009 (ip), vehicle: Klucel (hydroxypropylcellulose) (HPC)
[3] = dose: 200.0 mg/kg/injection, schedule: Q01DX009 (ip), vehicle: Klucel (hydroxypropylcellulose) (HPC)
[4] = dose: 100.0 mg/kg/injection, schedule: Q01DX001 (ip), vehicle: carboxymethylcellulose (CMC)
[5] = dose: 200.0 mg/kg/injection, schedule: Q01DX001 (ip), vehicle: carboxymethylcellulose (CMC)
[6] = dose: 400.0 mg/kg/injection, schedule: Q01DX001 (ip), vehicle: carboxymethylcellulose (CMC)
[7] = dose: 100.0 mg/kg/injection, schedule: Q01DX001 (ip), vehicle: saline with Tween-80
[8] = dose: 200.0 mg/kg/injection, schedule: Q01DX001 (ip), vehicle: saline with Tween-80
[9] = dose: 400.0 mg/kg/injection, schedule: Q01DX001 (ip), vehicle: saline with Tween-80
[10] = dose: 100.0 mg/kg/injection, schedule: Q04DX003 (ip), vehicle: Klucel (hydroxypropylcellulose) (HPC)
[11] = dose: 200.0 mg/kg/injection, schedule: Q04DX003 (ip), vehicle: Klucel (hydroxypropylcellulose) (HPC)
[12] = dose: 100.0 mg/kg/injection, schedule: Q04DX002 (ip), vehicle: Klucel (hydroxypropylcellulose) (HPC)
[13] = dose: 200.0 mg/kg/injection, schedule: Q04DX002 (ip), vehicle: Klucel (hydroxypropylcellulose) (HPC)
[14] = dose: 400.0 mg/kg/injection, schedule: Q04DX002 (ip), vehicle: Klucel (hydroxypropylcellulose) (HPC)
[15] = dose: 25.0 mg/kg/injection, schedule: Q01DX009 (ip), vehicle: Klucel (hydroxypropylcellulose) (HPC)
[16] = dose: 25.0 mg/kg/injection, schedule: Q04DX003 (ip), vehicle: Klucel (hydroxypropylcellulose) (HPC)
[17] = dose: 50.0 mg/kg/injection, schedule: Q04DX003 (ip), vehicle: Klucel (hydroxypropylcellulose) (HPC)
[18] = dose: 50.0 mg/kg/injection, schedule: Q04DX003 (ip), vehicle: saline with Tween-80
[19] = dose: 100.0 mg/kg/injection, schedule: Q04DX003 (ip), vehicle: saline with Tween-80
[20] = dose: 200.0 mg/kg/injection, schedule: Q04DX003 (ip), vehicle: saline with Tween-80
[21] = dose: 400.0 mg/kg/injection, schedule: Q04DX003 (ip), vehicle: saline with Tween-80
[22] = dose: 100.0 mg/kg/injection, schedule: Q01DX009 (ip), vehicle: saline with Tween-80
[23] = dose: 200.0 mg/kg/injection, schedule: Q01DX009 (ip), vehicle: saline with Tween-80
[24] = dose: 400.0 mg/kg/injection, schedule: Q01DX009 (ip), vehicle: saline with Tween-80

Measured: T/C

CCCCCCCCCCCCN (tested in a mixture with another compound)
inactive: dose: 87.5 mg/kg/injection, schedule: Q01DX001 (ip), vehicle: Klucel (hydroxypropylcellulose) (HPC) 93 % of control

CCOP(=S)(NCCCOC)OCC
inactive: dose: 100.0 mg/kg/injection, schedule: Q01DX001 (ip), vehicle: other 94 % of control | dose: 100.0 mg/kg/injection, schedule: Q01DX009 (ip), vehicle: other 92 % of control | dose: 100.0 mg/kg/injection, schedule: Q04DX003 (ip), vehicle: other 87 % of control | dose: 200.0 mg/kg/injection, schedule: Q01DX001 (ip), vehicle: other 93 % of control | dose: 200.0 mg/kg/injection, schedule: Q01DX009 (ip), vehicle: other 93 % of control | dose: 200.0 mg/kg/injection, schedule: Q04DX003 (ip), vehicle: other 92 % of control | dose: 400.0 mg/kg/injection, schedule: Q01DX001 (ip), vehicle: other 98 % of control | dose: 400.0 mg/kg/injection, schedule: Q01DX009 (ip), vehicle: other 88 % of control | dose: 400.0 mg/kg/injection, schedule: Q04DX003 (ip), vehicle: other 93 % of control

CCCCCCCCCCCCCCCCS(=O)CCCCCCCCCCCCCCCC
inactive: [1] 88 % of control | [2] 92 % of control

CCNCCCNCC(Cc1ccccc1)c1ccccc1 (centres undefined)
inactive: dose: 100.0 mg/kg/injection, schedule: Q04DX002 (ip), vehicle: saline 102 % of control

Cn1c(=O)c(CC(C(=O)O)C(=O)O)nc2ccccc21
inactive: [1] 93 % of control | [2] 93 % of control | [3] 100 % of control

CN(C)S(=O)(=O)c1ccc(NC(=O)OC2CCCC2)cc1
inactive: [4] 93 % of control | [5] 98 % of control | [6] 98 % of control

CC1=C(N)/C(=C(/C)C#N)OC1=O
inactive: [7] 92 % of control | [8] 100 % of control | [9] 92 % of control

COc1ccc(C)cc1CN1NC(=O)CC1=N
inactive: [2] 97 % of control | [10] 106 % of control | [3] 101 % of control | [11] 110 % of control | dose: 400.0 mg/kg/injection, schedule: Q01DX009 (ip), vehicle: Klucel (hydroxypropylcellulose) (HPC) 98 % of control | dose: 400.0 mg/kg/injection, schedule: Q04DX003 (ip), vehicle: Klucel (hydroxypropylcellulose) (HPC) 102 % of control

O=C(Nc1ccccc1Cl)Nc1cccc2ccccc12
inactive: [12] 105 % of control | [13] 102 % of control | [14] 98 % of control

CCC1(O)CC2c3ccccc3CCN2CC1CC(C)C (centres undefined)
inactive: dose: 12.5 mg/kg/injection, schedule: Q01DX009 (ip), vehicle: Klucel (hydroxypropylcellulose) (HPC) 101 % of control | [15] 116 % of control | [16] 110 % of control | [1] 108 % of control | [17] 98 % of control | [2] 121 % of control | [10] 113 % of control | [11] 107 % of control

CCOC(=O)c1ccc2c(c1)C(=O)c1cc([N+](=O)[O-])ccc1-2
inactive: [4] 96 % of control | [5] 96 % of control | [6] 96 % of control

CCOC1=NC(C)(C)CC(C)O1 (centres undefined)
inactive: dose: 25.0 mg/kg/injection, schedule: Q04DX003 (ip), vehicle: saline with Tween-80 95 % of control | [18] 101 % of control | [19] 102 % of control

Nc1cccc2c1-c1ccccc1/C2=N\O
inactive: [4] 97 % of control | [5] 105 % of control | [6] 103 % of control

O=C(OCC(O)C1OC(COC(=O)c2ccccc2)C1O)c1ccccc1 (centres undefined)
inactive: [7] 101 % of control | [8] 97 % of control | [9] 97 % of control

CCc1ccc(/C(C#N)=C/C=C/c2ccccc2)cc1
inactive: [12] 112 % of control | [13] 102 % of control | [14] 97 % of control

N#CC(C#N)=C1Cc2ccccc2C1
inactive: [18] 109 % of control | [19] 109 % of control

Cc1cc(O)c(O)c([N+](=O)[O-])c1
inactive: [19] 96 % of control | [20] 92 % of control | [21] 101 % of control

CCC(=O)Nc1ccccc1Cl
inactive: [22] 97 % of control | [23] 98 % of control | [24] 101 % of control

Cc1nccn1CC(=O)c1ccccc1
inactive: dose: 25.0 mg/kg/injection, schedule: Q01DX001 (ip), vehicle: Klucel (hydroxypropylcellulose) (HPC) 102 % of control | [15] 91 % of control | [16] 100 % of control | dose: 50.0 mg/kg/injection, schedule: Q01DX001 (ip), vehicle: Klucel (hydroxypropylcellulose) (HPC) 113 % of control | [1] 94 % of control and 108 % of control | [17] 103 % of control | dose: 100.0 mg/kg/injection, schedule: Q01DX001 (ip), vehicle: Klucel (hydroxypropylcellulose) (HPC) 95 % of control | [2] 97 % of control | [12] 96 % of control and 106 % of control | [10] 94 % of control | [13] 101 % of control

O=C(CNC(=O)c1ccccc1)N/N=C/c1c(O)ccc2ccccc12
inactive: [22] 95 % of control | [23] 95 % of control | [24] 97 % of control

O=P(CCCc1ccccc1)(CCCc1ccccc1)Oc1cccc(C(F)(F)F)c1
inactive: [19] 90 % of control | [20] 92 % of control | [21] 101 % of control

C[N+]1(C)CCN(c2ccccc2)CC1
inactive: dose: 9.38 mg/kg/injection, schedule: Q01DX001 (ip), vehicle: saline 108 % of control | dose: 18.75 mg/kg/injection, schedule: Q01DX001 (ip), vehicle: saline 105 % of control

CN(C)C(=O)C1CCC1
inactive: [22] 91 % of control | [19] 103 % of control | [23] 105 % of control | [20] 101 % of control | [24] 100 % of control | [21] 104 % of control

C[N+]1(C)CCC(=O)CC1
inactive: [19] 98 % of control | [20] 98 % of control | [21] 95 % of control

Nc1ccccc1SC(CC(=O)c1ccccc1)c1c(Cl)cccc1Cl (centres undefined)
inactive: dose: 100.0 mg/kg/injection, schedule: Q01DX005 (ip), vehicle: Klucel (hydroxypropylcellulose) (HPC) 94 % of control | [12] 110 % of control | dose: 200.0 mg/kg/injection, schedule: Q01DX005 (ip), vehicle: Klucel (hydroxypropylcellulose) (HPC) 108 % of control | [13] 95 % of control | dose: 400.0 mg/kg/injection, schedule: Q01DX005 (ip), vehicle: Klucel (hydroxypropylcellulose) (HPC) 94 % of control | [14] 95 % of control

CC1(C(=O)O)CC(Cl)=CCC1C(=O)O (centres undefined)
inactive: dose: 100.0 mg/kg/injection, schedule: Q01DX001 (ip), vehicle: steriod suspending solution 105 % of control | dose: 200.0 mg/kg/injection, schedule: Q01DX001 (ip), vehicle: steriod suspending solution 103 % of control | dose: 400.0 mg/kg/injection, schedule: Q01DX001 (ip), vehicle: steriod suspending solution 97 % of control

C=C(C)CSC(=S)NNc1ccccc1
inactive: dose: 150.0 mg/kg/injection, schedule: Q01DX009 (ip), vehicle: saline with Tween-80 93 % of control | dose: 225.0 mg/kg/injection, schedule: Q01DX009 (ip), vehicle: saline with Tween-80 86 % of control

C=CC1(C)CCC2C(=CCC3C(C)(C(=O)O)CCCC23C)C1 (centres undefined) (tested in a mixture with another compound)
inactive: [4] 104 % of control | [5] 95 % of control | [6] 95 % of control
